The text below walks through data of publication PMC11391541, “Target-Directed Dynamic Combinatorial Chemistry Affords Binders of Mycobacterium tuberculosis IspE” (ACS Omega, 2024).

A short description of data set [1]: physchem. Conditions: aqueous with cosolvent or surfactant or cyclodextrin, kinetic from dmso stock, solubility 5% DMSO in PBS.
Data set [2] in a line: solubility in M. tuberculosis 7H9 growth medium. In kind it is physicochemical. Conditions: M. tuberculosis 7H9 growth medium, plasma or biological fluid, kinetic from dmso stock; Mtb 7H9 growth medium. How it is done: Prior to biological evaluation of the tdDCC hits, we tested their solubility in a standard buffer as well as in M. tuberculosis 7H9 growth medium. […] Regrettably, with 3.3 μM the least soluble compound is E1, making our most amplified and promising compound unsuitable for biological evaluation. We assessed the solubility in Mtb growth medium given that it is a complex, nutrient-rich environment with a distinct solubility profile. However, the trend continued, only seven hits are soluble at 8 μM or above, the remaining five compounds, including E1, were not eligible for antitubercular activity testing (Table 1).
Determination of in vitro anti-tubercular activity and solubility in 7H9 medium Anti-tubercular tests were performed as previously described .1 In brief, 7H9 complete medium (BD Difco; Becton Dickinson, Maryland,USA) supplemented with 10% OADC (BD), 0.2% glycerol, and 0.05% Tween80 as previously described ,3 was used to culture Mycobacterium tuberculosis (Mtb) strain H37Rv (ATCC 25618) carrying a mCherry -expressing plasmid (pCherry10 ).4 Cultures were harvested at mid-log phase and frozen in aliquots at – 80 °C. Prior to testing aliquots were thawed followed by centrifugation and the pellet was resuspended in 7H9 medium with 10% OADC (without glycerol and Tween80). This was further thoroughly resuspended by passing it through a syringe with a 26 -gauge needle to avoid clumping of the bacteria. 2×10^5 CFU (colony forming units) were then cultured in a total volume of 100 μl culture medium (triplicates) to test the non-precipitating compounds for the anti-tubercular activity at the concentrations indicated. For these assays, 96-well flat clear bottom black polystyrene microplates (Corning® CellBIND®, Merck, New York, USA) wer e used. Each plate had Rifampicin (at 1 μg/ml and 0.1 μg/ml) (National Reference Center, Borstel) as a reference compound. Plates were sealed with an air -permeable membrane (Porvair Sciences, Wrexham, UK) in a 37 °C incubator with mild agitation (TiMix5, Edmund Bühler, Germany). The activity of compounds was determined after 7 days by measuring the bacterial growth as relative light units (RLU) from the fluorescence intensity obtained at an excitation wavelength of 575 nm and an emission wavelength of 635 n m in a microplate reader (Synergy 2, BioTek Instruments, Vermont, USA). Two independent experiments (each in triplicates) were performed, and all values were normalized to untreated control sample (100%) in each experiment.
To obtain information regarding the toxicity of our compounds, their impact on the viability of human cells was investigated. HepG2 cells (2x10^4 cells per well) were seeded in 96 -well, flat-bottomed culture plates in 100 µL culture medium (DMEM containing 10% fetal calve serum, 1% penicillin -streptomycin). Twenty-four hours after seeding the cells, medium was removed and replaced by medium containing test compounds in a final DMSO concentration of 1%. Compounds were tested in duplicates at a single concentration or, for CC50 determination, at 8 concentrations that were prepared via 2 -fold serial dilutions in 1% DMSO/medium. Epirubicin and doxorubicin were used as positive controls in serial dilutions starting from 10 µM, and rifampicin was used as a negative control (at 100 µM). The living cell mass was determined 48 h after treatment with compounds by adding 0.1 volumes of 3 -(4,5-dimethylthiazol-2-yl)-2,5-diphenyltetrazolium bromide (MTT) solution (5 mg/mL sterile PBS) (Sigma, St. Louis, MO) to the wells. After incubating the cells for 30 min at 37 °C (atmosphere containing 5% CO2), medium was removed and MTT crystals were dissolved in 75 µL of a solution containing 10% SDS and 0.5% acetic acid in DMSO. The optical density (OD) of the samples was determined photometrically at 570 nm in a PHERAstar Omega plate reader (BMG labtech, Ortenberg, Germany). To obtain percent viability for each sample, their ODs were related to those of DMSO controls. […]

In data set [3] the test system is fungi. Set-up: method as in PMID 25943854. Conditions: cited from earlier work.

Structures are written as SMILES. ≈ marks a conversion by molar mass, not a printed value.

With `O=C(N/N=C/c1cc(Cl)ccc1O)c1ccncc1` [L1, (E)-N′-(5-Chloro-2-hydroxybenzylidene)isonicotinohydrazide], the solubility (commonly how much of the substance goes into solution per volume) at 5 min in data set [1] was found to be 108 ± 3 µM (≈ 29.8 µg/mL). Besides, the solubility in data set [2] is 16 µM. For the same compound, in data set [3], the antifungal properties result is listed as “antifungal properties”.
In turn, `O=C(N/N=C/c1ccc(C(F)(F)F)cc1)c1cccc(Cl)c1` [K4, (E)-3-Chloro-N′-(4-(trifluoromethyl)benzylidene)benzohydrazide] returned a solubility at 5 min in data set [1] of 21 ± 6 µM (≈ 6.86 µg/mL). Moreover, in data set [2], the solubility was determined as 8 µM.
In turn, `COc1ccc(-c2cc(/C=N/NC(=O)c3cc(CC(C)C)n[nH]3)no2)cc1` [D6, (E)-3-Isobutyl-N′-((5-(4-methoxyphenyl)isoxazol-3-yl)methylene)-1H-pyrazole-5-carbohydrazide] showed a solubility at 5 min in data set [1] of 20 ± 10 µM (≈ 7.35 µg/mL). Also, the solubility in data set [2] came out at 16 µM.
